# From patent EP1090023B1 (GLAXO GROUP LIMITED, priority 1998, dated 1999)
# Experiments:
# Type in all cases: cell-based
# [1] = biological target: adenosine 2a (Homo sapiens, UniProt P29274); assay: Agonist activity against adenosine receptor subtypes, CHO cells with cAMP response element/SPAP reporter (basal cAMP); conditions: ratio to EC50 of NECA; transfected CHO cells; effect on basal cAMP via SPAP
# Description: (§1) Compounds of the invention were tested for in vitro and in vivo biological activity in accordance with the following screens: • (1) Agonist activity against adenosine 2a, adenosine 1 and adenosine 3 receptor subtypes.
# (§2) Agonist selectivity of compounds against other human adenosine receptors was determined using Chinese hamster ovary (CHO) cells transfected with the gene for the relevant human adenosine receptor following a method based on that of Castanon and Spevak, 1994 . The CHO cells were also transfected with cyclic AMP response elements promoting the gene for secreted placental alkaline phosphatase (SPAP) (Wood, 1995). The effect of test compounds was determined by their effects on basal levels of cAMP (A2a) or on forskolin-enhanced cAMP (A1 and A3) as reflected by changes in levels of SPAP. EC50 values for compounds were then determined as a ratio to that of the non-selective agonist N-ethyl carboxamide adenosine (NECA).
# [2] = biological target: T1, adenosine 3 (Homo sapiens, UniProt P0DMS8); assay: Agonist activity against adenosine receptor subtypes, CHO cells with cAMP response element/SPAP reporter (forskolin-enhanced cAMP); conditions: ratio to EC50 of NECA; transfected CHO cells; effect on forskolin-enhanced cAMP via SPAP
# T1 sequence (P0DMS8 1-318): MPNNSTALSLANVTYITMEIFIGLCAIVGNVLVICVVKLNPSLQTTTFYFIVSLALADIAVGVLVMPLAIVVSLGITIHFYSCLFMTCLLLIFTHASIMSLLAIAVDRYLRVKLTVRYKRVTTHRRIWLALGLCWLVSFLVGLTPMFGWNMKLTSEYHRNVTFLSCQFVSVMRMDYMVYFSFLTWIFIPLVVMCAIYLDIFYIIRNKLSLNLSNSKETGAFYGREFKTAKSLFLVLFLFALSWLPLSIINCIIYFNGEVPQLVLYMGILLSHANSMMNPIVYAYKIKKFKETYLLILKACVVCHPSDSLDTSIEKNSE
# Description: as §1, §2
# [3] = biological target: T2, adenosine 1 (Homo sapiens, UniProt P30542); assay: as above; conditions: ratio to EC50 of NECA; transfected CHO cells; effect on forskolin-enhanced cAMP via SPAP
# T2 sequence (P30542 1-326): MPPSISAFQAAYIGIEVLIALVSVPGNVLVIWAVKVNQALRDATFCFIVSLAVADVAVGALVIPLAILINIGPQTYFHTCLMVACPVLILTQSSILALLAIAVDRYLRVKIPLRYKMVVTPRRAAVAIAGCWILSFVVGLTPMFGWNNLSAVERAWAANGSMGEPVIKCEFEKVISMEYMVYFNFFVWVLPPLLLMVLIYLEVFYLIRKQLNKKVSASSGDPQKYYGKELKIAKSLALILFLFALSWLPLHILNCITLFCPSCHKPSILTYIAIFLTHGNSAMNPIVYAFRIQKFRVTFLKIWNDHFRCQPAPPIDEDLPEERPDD
# Description: as §1, §2
# adenosine 2a, sequence (P29274 whole entry): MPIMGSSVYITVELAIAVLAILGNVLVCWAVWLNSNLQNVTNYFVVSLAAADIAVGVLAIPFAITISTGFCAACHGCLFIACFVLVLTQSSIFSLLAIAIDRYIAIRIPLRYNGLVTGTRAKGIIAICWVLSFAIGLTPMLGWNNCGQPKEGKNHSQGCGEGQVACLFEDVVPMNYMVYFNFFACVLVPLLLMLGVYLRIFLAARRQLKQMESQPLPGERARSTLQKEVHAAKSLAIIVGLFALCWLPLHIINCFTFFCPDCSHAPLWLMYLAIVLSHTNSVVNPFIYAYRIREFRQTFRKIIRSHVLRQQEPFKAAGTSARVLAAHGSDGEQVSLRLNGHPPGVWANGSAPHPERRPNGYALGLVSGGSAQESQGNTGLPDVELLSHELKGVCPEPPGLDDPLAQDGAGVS
A2a (EC50 values as a ratio of that of NECA) [1],A3 (EC50 values as a ratio of that of NECA) [2],A1 (EC50 values as a ratio of that of NECA) [3],Structure (SMILES)
34.25,>206,4999.7,"CCn1cnc([C@H]2O[C@@H](n3cnc4c(NCC(c5ccccc5)c5ccccc5)nc(NCCc5ccccn5)nc43)[C@H](O)[C@@H]2O)n1.O=CO.O=CO [Example 33, (2R,3R,4S,5R)-2-[6-(2,2-Diphenyl-ethylamino)-2-(2-pyridin-2-yl-ethylamino)-purin-9-yl]-5-(1-ethyl-1H-[1,2,4]triazol-3-yl)-tetrahydro-furan-3,4-diol diformate]"
74.29,>249,1921.5,"CCC(CC)Nc1nc(NCCC2CCCCC2)nc2c1ncn2C1OC(c2nnc(C3CC3)o2)C(O)C1O.O=CO.O=CO [Example 41, (2R,3R,4S,5S)-2-[2-(2-Cyclohexyl-ethylamino)-6-(1-ethyl-propylamino)-purin-9-yl]-5-(5-cyclopropyl-[1,3,4]oxadiazol-2-yl)-tetrahydro-furan-3,4-diol diformate]"
30.7,>284,>2147,"CCc1nc([C@H]2O[C@@H](n3cnc4c(NCC(c5ccccc5)c5ccccc5)nc(NCCNC(=N)N)nc43)[C@H](O)[C@@H]2O)no1.O=CO.O=CO [Example 29, N-(2-{6-(2,2-Diphenyl-ethylamino)-9-[5R-(5-ethyl-[1,2,4]oxadiazol-3-yl)-3R,4S-dihydroxy-tetrahydro-furan-2R-yl]-9H-purin-2-ylamino}-ethyl)-guanidine diformate]"
4.05,>293,3172,"Cc1nnc([C@H]2O[C@@H](n3cnc4c(NCC(c5ccccc5)c5ccccc5)nc(NCCc5cn(C)cn5)nc43)[C@H](O)[C@@H]2O)s1.O=CO.O=CO [Example 19, (2R,3R,4S,5S)-2-{6-(2,2-Diphenyl-ethylamino)-2-[2-(1-methyl-1H-imidazol-4-yl)-ethylamino]-purin-9-yl}-5-(5-methyl-[1,3,4]thiadiazol-2-yl)-tetrahydro-furan-3,4-diol diformate]"
45.64,>173,365.6,CCC(CC)Nc1nc(NCCN2CCCCC2)nc2c1ncn2C1OC(c2nnc(C3CC3)o2)C(O)C1O.O=CO.O=CO (stereo not drawn) [Example 38]
2.46,>1087,>=7728,"Cc1nnc([C@H]2O[C@@H](n3cnc4c(NCC(c5ccccc5)c5ccccc5)nc(N[C@H](CO)Cc5ccccc5)nc43)[C@H](O)[C@@H]2O)[nH]1.O=CO [Example 2, (2R,3R,4S,5R)-2-[6-(2,2-Diphenyl-ethylamino)-2-(1S-hydroxymethyl-2-phenyl-ethylamino)-purin-9-yl]-5-(5-methyl-4H-[1,2,4]triazol-3-yl)-tetrahydro-furan-3,4-diol formate]"
17.7,>470,2625,"Cc1nnc([C@H]2O[C@@H](n3cnc4c(NCC(c5ccccc5)c5ccccc5)nc(N[C@H](CO)Cc5ccccc5)nc43)[C@H](O)[C@@H]2O)s1.O=CO [Example 20, (2R,3R,4S,5S)-2-[6-(2,2-Diphenyl-ethylamino)-2-(1S-hydroxymethyl-2-phenyl-ethylamino)-purin-9-yl]-5-(5-methyl-[1,3,4]thiadiazol-2-yl)-tetrahydro-furan-3,4-diol formate]"

# Second part, the compound before the results:
Structure (SMILES),A2a (EC50 values as a ratio of that of NECA) [1],A3 (EC50 values as a ratio of that of NECA) [2],A1 (EC50 values as a ratio of that of NECA) [3]
"CCc1nnc([C@H]2O[C@@H](n3cnc4c(NCC(c5ccccc5)c5ccccc5)nc(NCCN5CCOCC5)nc43)[C@H](O)[C@@H]2O)[nH]1.O=CO [Example 8, (2R,3R,4S,5R)-2-[6-(2,2-Diphenyl-ethylamino)-2-(2-morpholin-4-yl-ethylamino)-purin-9-yl]-5-(5-ethyl-4H-[1,2,4]triazol-3-yl)-tetrahydro-furan-3,4-diol formate]",19.4,>183,>10735
"CCC(CC)Nc1nc(N[C@@H]2CCNC2)nc2c1ncn2[C@@H]1O[C@H](c2nnc(C3CC3)o2)[C@@H](O)[C@H]1O.O=CO.O=CO [Example 40, (2S,3S,4R,5R)-2-(5-Cyclopropyl-[1,3,4]oxadiazol-2-yl)-5-[6-(1-ethyl-propylamino)-2-(pyrrolidin-3R-ylamino)-purin-9-yl]-tetrahydro-furan-3,4-diol diformate]",56.86,>173,5084.2
"CCC(CC)Nc1nc(N[C@H]2CC[C@H](N)CC2)nc2c1ncn2[C@@H]1O[C@H](c2nnc(C3CC3)o2)[C@@H](O)[C@H]1O.O=CO.O=CO (relative stereo) [Example 36, (2R,3R,4S,5S)-2-[2-(trans-4-Amino-cyclohexylamino)-6-(1-ethyl-propylamino)-purin-9-yl]-5-(5-cyclopropyl-[1,3,4]oxadiazol-2-yl)-tetrahydro-furan-3,4-diol diformate]",26.3,>173,1105.6
"CCc1nnc([C@H]2O[C@@H](n3cnc4c(NCC(c5ccccc5)c5ccccc5)nc(NCCN5CCOCC5)nc43)[C@H](O)[C@@H]2O)o1.O=CO [Example 23, (2R,3R,4S,5S)-2-[6-(2,2-Diphenyl-ethylamino)-2-(2-morpholin-4-yl-ethylamino)-purin-9-yl]-5-(5-ethyl-[1,3,4]oxadiazol-2-yl)-tetrahydro-furan-3,4-diol formate]",6.16,>180,101.96
"CCC(CC)Nc1nc(NC2CCCC2)nc2c1ncn2[C@@H]1O[C@H](c2nnc(C3CC3)o2)[C@@H](O)[C@H]1O.O=CO.O=CO [Example 39, (2R,3R,4S,5S)-2-[2-Cyclopentylamino-6-(1-ethyl-propylamino)-purin-9-yl]-5-(5-cyclopropyl-[1,3,4]oxadiazol-2-yl)-tetrahydro-furan-3,4-diol diformate]",129.5,>173,>=1067
"Cc1nnc([C@H]2O[C@@H](n3cnc4c(NCC(c5ccccc5)c5ccccc5)nc(NCCN5CCCC5)nc43)[C@H](O)[C@@H]2O)[nH]1.O=CO [Example 1, (2R,3R,4S,5R)-2-[6-(2,2-Diphenyl-ethylamino)-2-(2-pyrrolidin-1-yl-ethylamino)-purin-9-yl]-5-(5-methyl-4H-[1,2,4]triazol-3-yl)-tetrahydro-furan-3,4-diol formate]",14.6,>1088,>8325
"CCc1nnc([C@H]2O[C@@H](n3cnc4c(NCC(c5ccccc5)c5ccccc5)nc(NCCc5ccccn5)nc43)[C@H](O)[C@@H]2O)o1.O=CO [Example 24, (2R,3R,4S,5S)-2-[6-(2,2-Diphenyl-ethylamino)-2-(2-pyridin-2-yl-ethylamino)-purin-9-yl]-5-(5-ethyl-[1,3,4]oxadiazol-2-yl)-tetrahydro-furan-3,4-diol formate]",6.04,>175,390.97
"CCc1nc([C@H]2O[C@@H](n3cnc4c(NCC(c5ccccc5)c5ccccc5)nc(NCCN5CCOCC5)nc43)[C@H](O)[C@@H]2O)no1.O=CO [Example 15, (2R,3R,4S,5R)-2-[6-(2,2-Diphenyl-ethylamino)-2-(2-morpholin-4-yl-ethylamino)-purin-9-yl]-5-(5-ethyl-[1,2,4]oxadiazol-3-yl)-tetrahydro-furan-3,4-diol formate]",13.62,>190,>=8649
"Cc1nnc([C@H]2O[C@@H](n3cnc4c(NCC(c5ccccc5)c5ccccc5)nc(NCCc5cn(C)cn5)nc43)[C@H](O)[C@@H]2O)[nH]1.O=CO [Example 3, (2R,3R,4S,5R)-2-{6-(2,2-Diphenyl-ethylamino)-2-[2-(1-methyl-1H-imidazol-4-yl)-ethylamino]-purin-9-yl}-5-(5-methyl-4H-[1,2,4]triazol-3-yl)-tetrahydro-furan-3,4-diol formate]",3.54,>698,>9058
